In patent publication US7456205B2, “Benzopyran compounds, process for preparing the same and their use” (Shanghai Institute of Materia Medica, Chinese Academy of …, priority 2003, dated 2008):

What was measured:
3T3-L1 cells = test: Insulin-sensitizing activity in 3T3-L1 preadipocyte model, triglyceride accumulation as indication of cell differentiation; type: cell-based; conditions: for The Percentage of Triglyceride Increased in 3T3-L1 Cells: with IBMX, DEX and insulin, average of 3 pores (rosiglitazone n = 22, mean ± SD); for insulin-sensitizing activity: verbal summary of Table 2
Method: The insulin-sensitizing agents can promote the differentiation of pre-adipocytes toward adipocyte. Thus insulin-sensitizing agents could be identified with the insex of the differentiation of pre-adipocytes. Following the methods reported in the literature [Kletzein B F. Mol. Pharm. 1991, 41, 393], the insulin-sensitizing activities of the compounds of formula (I) of the present invention were evaluated in 3T3-L1 preadipocyte model with triglyceride accumulation in cells as the indication of cell differentiation.
The 3T3-L1 cells were incubated in DMEM (Dulbecco's Modified Eagle's Medium) containing 10% NBS (newborn calf serum) and subcultured every 3 days. The cells were transferred to 24-pore plates, and after the pores were filled completely, the cells were treated with IBMX (isobutylmethylxanthine) (0.5 mmol/L), DEX (dexamethasone) (1 μmol/L) and insulin (1.0 μmol/L) for 48 h, meanwhile different amounts of test compounds were added into. The cells were incubated continuously until the end of the experiment. Cells were collected and the contents of triglyceride and protein therein were determined by colorimetry. Enhancements of triglyceride in cells after drug-administrating were calculated.
The positive control group was rosiglitazone, and the solvent control group was a culturing medium containing 0.1% of DMSO. […] Thus, the derivatives of the benzopyran compounds of the present invention can be used to control the blood glucose level in type II diabetes patients and inhibit the occurrence of complications caused by the type II diabetes.

melting point	Compound	The Percentage of Triglyceride Increased in 3T3-L1 Cells (3T3-L1 cells; test compound 0.01 μmol/L)	The Percentage of Triglyceride Increased in 3T3-L1 Cells (3T3-L1 cells; test compound 0.1 μmol/L)	The Percentage of Triglyceride Increased in 3T3-L1 Cells (3T3-L1 cells; test compound 1 μmol/L)	insulin-sensitizing activity (3T3-L1 cells)
129 to 130 °C	COC(=O)c1cc2ccc(OCc3ccccc3)cc2oc1=O [Compound 1, 7-benzyloxyl-2-oxo-2H-1-benzopyran-3-carboxylic acid methyl ester]	−5.73%	−0.43%	7.93%	
	O=C(O)c1cc2ccc(OCc3ccccc3)cc2oc1=O [Compound 2, 7-benzyloxyl-2-oxo-2H-1-benzopyran-3-carboxylic acid]	20.86%	18.31%	14.63%	
100 to 101 °C	COC(=O)c1cc2ccc(OCCc3ccccc3)cc2oc1=O [Compound 3, 7-(2-phenyl)ethoxyl-2-oxo-2H-1-benzopyran-3-carboxylic acid methyl ester]	4.57%	−2.61%	−5.50%	
	CCc1ccc(CCOc2ccc3cc(C(=O)OC)c(=O)oc3c2)nc1 [Compound 4, 7-[2-(5-ethyl-2-pyridine)ethyoxyl]-2-oxo-2H-1-benzopyran-3-carboxylic acid methyl ester]	7.26%	11.55%	17.71%	
	COC(=O)c1cc2ccc(OCCn3ccc4ccccc43)cc2oc1=O [Compound 5, 7-[2-(1-indole)ethoxyl]-2-oxo-2H-1-benzopyran-3-carboxylic acid methyl ester]	7.88%	27.58%	34.74%	
	COC(=O)c1cc2ccc(OCCc3nc(-c4ccccc4)oc3C)cc2oc1=O [Compound 6, 7-[2-(5-methyl-2-phenyl-4-oxazole)ethoxyl]-2-oxo-2H-1-benzopyran-3-carboxylic acid methyl ester]	27.04%	67.24%	52.45%	stronger insulin-sensitizing activity
	O=C(O)c1cc2ccc(OCCc3ccccc3)cc2oc1=O [Compound 7, 7-(2-phenyl)ethoxyl-2-oxo-2H-1-benzopyran-3-carboxylic acid]	7.97%	−1.10%	−6.29%	
	CCc1ccc(CCOc2ccc3cc(C(=O)O)c(=O)oc3c2)nc1 [Compound 8, 7-[2-(5-ethyl-2-pyridine)ethyoxyl]-2-oxo-2H-1-benzopyran-3-carboxylic acid]	12.25%	3.67%	5.66%	
	O=C(O)c1cc2ccc(OCCn3ccc4ccccc43)cc2oc1=O [Compound 9, 7-[2-(1-indole)ethoxyl]-2-oxo-2H-1-benzopyran-3-carboxylic acid]	−5.25%	−8.42%	−12.95%	
	Cc1oc(-c2ccccc2)nc1CCOc1ccc2cc(C(=O)O)c(=O)oc2c1 [Compound 10, 7-[2-(5-methyl-2-phenyl-4-oxazole)ethoxyl]-2-oxo-2H-1-benzopyran-3-carboxylic acid]	−3.28%	26.68%	32.30%	
	COC(=O)C1Cc2ccc(OCCc3ccccc3)cc2OC1=O (centres unmarked) [Compound 11, 7-(2-phenyl)ethoxyl-3,4-dihydro-2-oxo-4H-1-benzopyran-3-carboxylic acid methyl ester]	−9.13%	12.90%	14.10%	
	CCc1ccc(CCOc2ccc3c(c2)OC(=O)C(C(=O)OC)C3)nc1 (centres unmarked) [Compound 12, 7-[2-(5-ethyl-2-pyridine)ethyoxyl]-3,4-dihydro-2-oxo-4H-1-benzopyran-3-carboxylic acid methyl ester]	4.13%	−2.40%	2.53%	
	COC(=O)C1Cc2ccc(OCCc3nc(-c4ccccc4)oc3C)cc2OC1=O (centres unmarked) [Compound 13, 7-[2-(5-methyl-2-phenyl-4-oxazole)ethoxyl]-3,4-dihydro-2-oxo-4H-1-benzopyran-3-carboxylic acid methyl ester]	28.33%	52.92%	64.69%	stronger insulin-sensitizing activity
	COC(=O)C1Cc2ccc(OCc3ccc(C(F)(F)F)cc3)cc2OC1=O (centres unmarked) [Compound 14, 7-(4-trifluoromethylbenzyloxyl)-3,4-dihydro-2-oxo-4H-1-benzopyran-3-carboxylic acid methyl ester]	19.33%	−16.81%	−2.69%	
88 to 90 °C	COC(=O)C1Cc2ccc(OCCN(C)c3nc4ccccc4o3)cc2OC1=O (centres unmarked) [Compound 16, 7-[2-[N-methyl-N-(2-benzoxazole)amino]ethoxyl]-3,4-dihydro-2-oxo-4H-1-benzopyran-3-carboxylic acid methyl ester]	11.01%	29.32%	25.09%	
	Cc1oc(-c2ccccc2)nc1CCOc1ccc2cc(C(=O)OC(C)(C)C)c(=O)oc2c1 [Compound 17, 7-[2-(5-methyl-2-phenyl-4-oxazole)ethoxyl]-2-oxo-2H-1-benzopyran-3-carboxylic acid tert-butyl ester]	18.33%	28.20%	33.01%	stronger insulin-sensitizing activity
	Cc1oc(-c2ccccc2)nc1CCOc1ccc2c(c1)OC(=O)C(C(=O)O)C2 (centres unmarked) [Compound 18, 7-[2-(5-methyl-2-phenyl-4-oxazole)ethoxyl]-3,4-dihydro-2-oxo-4H-1-benzopyran-3-carboxylic acid]	18.65%	29.28%	30.24%	stronger insulin-sensitizing activity

Compound	melting point	The Percentage of Triglyceride Increased in 3T3-L1 Cells (3T3-L1 cells; test compound 0.01 μmol/L)	The Percentage of Triglyceride Increased in 3T3-L1 Cells (3T3-L1 cells; test compound 0.1 μmol/L)	The Percentage of Triglyceride Increased in 3T3-L1 Cells (3T3-L1 cells; test compound 1 μmol/L)	insulin-sensitizing activity (3T3-L1 cells)
COC(=O)c1cc2ccc(OCCN(C)C(=O)OC(C)(C)C)cc2oc1=O [Compound 15, 7-[2-(N-tert-butoxycarbonyl-N-methylamino)ethoxyl]-2-oxo-2H-1-benzopyran-3-carboxylic acid methyl ester]	128 to 129 °C	26.38%	26.73%	44.70%	
